pIC50: −log10 of the molar value.
target: T1, hTLR7 (Homo sapiens, UniProt Q9NYK1); assay: HEK293-Blue-hTLR-7 cells assay (SEAP reporter, R848 stimulation); assay type: cell-based; design: host or cells: HEK293 (HEK-Blue); conditions: HEK293-Blue-hTLR7 cells, R848, 20 hrs; read-out: HEK/hTLR7 IC50
T1 sequence (Q9NYK1 27-1049): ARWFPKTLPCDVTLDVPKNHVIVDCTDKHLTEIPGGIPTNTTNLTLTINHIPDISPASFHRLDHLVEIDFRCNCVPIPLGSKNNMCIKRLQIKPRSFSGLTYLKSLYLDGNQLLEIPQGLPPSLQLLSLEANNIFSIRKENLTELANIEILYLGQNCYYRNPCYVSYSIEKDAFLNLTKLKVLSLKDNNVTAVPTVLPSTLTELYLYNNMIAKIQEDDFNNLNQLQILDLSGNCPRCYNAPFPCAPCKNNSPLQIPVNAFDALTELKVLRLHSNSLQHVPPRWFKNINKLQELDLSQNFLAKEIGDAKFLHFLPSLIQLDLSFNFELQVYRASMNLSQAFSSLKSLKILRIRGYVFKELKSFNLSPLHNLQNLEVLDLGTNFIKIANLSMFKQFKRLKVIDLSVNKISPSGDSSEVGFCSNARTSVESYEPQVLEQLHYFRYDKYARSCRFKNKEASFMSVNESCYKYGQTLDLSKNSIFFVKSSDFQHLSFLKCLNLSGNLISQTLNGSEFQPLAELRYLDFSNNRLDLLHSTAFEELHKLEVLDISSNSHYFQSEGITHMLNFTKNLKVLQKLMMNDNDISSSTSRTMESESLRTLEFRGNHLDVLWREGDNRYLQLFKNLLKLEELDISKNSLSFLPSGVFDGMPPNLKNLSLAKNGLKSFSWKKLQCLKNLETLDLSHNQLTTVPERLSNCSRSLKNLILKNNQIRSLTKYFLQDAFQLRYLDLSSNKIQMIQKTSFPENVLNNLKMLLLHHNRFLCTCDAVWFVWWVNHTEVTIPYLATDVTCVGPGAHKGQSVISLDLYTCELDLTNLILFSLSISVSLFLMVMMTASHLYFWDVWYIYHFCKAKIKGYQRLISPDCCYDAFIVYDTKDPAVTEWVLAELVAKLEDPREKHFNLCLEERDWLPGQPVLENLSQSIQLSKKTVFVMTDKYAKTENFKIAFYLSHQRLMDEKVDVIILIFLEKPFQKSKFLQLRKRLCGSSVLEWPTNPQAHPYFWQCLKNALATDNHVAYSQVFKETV
Text: A stable HEK293-Blue-hTLR-7 cell line was purchased from InvivoGen (Cat.#: hkb-htlr7, San Diego, California, USA). These cells were originally designed for studying the stimulation of human TLR7 by monitoring the activation of NF-κB. A SEAP (secreted embryonic alkaline phosphatase) reporter gene was placed under the control of the IFN-β minimal promoter fused to five NF-κB and AP-1-binding sites. The SEAP was induced by activating NF-xB and AP-1 via stimulating HEK-Blue hTT,R7 cells with TLR7 ligands. Therefore, the reporter expression was declined by TLR7 antagonist under the stimulation of a ligand, such as R848 (Resiquimod), for incubation of 20 hrs. The cell culture supernatant SEAP reporter activity was determined using QUANTI-Blue™ kit (Cat.#: rep-qb1, Invivogen, San Diego, Ca, USA) at a wavelength of 640 nm, a detection medium that turns purple or blue in the presence of alkaline phosphatase.
HEK293-Blue-hTLR7 cells were incubated at a density of 250,000-450,000 cells/mL in a volume of 170 µL in a 96-well plate in Dulbecco's Modified Eagle's medium (DMEM) containing 4.5 g/L glucose, 50 U/mL penicillin, […], […], 2 mM L-glutamine, 10% (v/v) heat-inactivated fetal bovine serum with addition of 20 µL test compound in a serial dilution in the presence of final DMSO at 1% and 10 µL of 20uM R848 in above DMEM, perform incubation under 37 °C in a CO2 incubator for 20 hrs. Then 20 µL of the supernatant from each well was incubated with 180 µL Quanti-blue substrate solution at 37 °C for 2 hrs and the absorbance was read at 620-655 nm using a spectrophotometer. The signaling pathway that TLR7 activation leads to downstream NF-xB activation has been widely accepted, and therefore similar reporter assay was modified for evaluating TLR7 antagonist.

Row | SMILES | pIC50
1 | C[C@@H]1CN(c2ccc(C#N)c3ncccc23)C[C@H](CN2CCCN(c3nc4c(s3)CNCC4)CC2)O1 [Example 33, 5-[(2R,6S)-2-methyl-6-[[4-(4,5,6,7-tetrahydrothiazolo[5,4-c]pyridin-2-yl)-1,4-diazepan-1-yl]methyl]morpholin-4-yl]quinoline-8-carbonitrile] | 7.77
2 | C[C@@H]1CN(c2ccc(C#N)c3ncccc23)C[C@H](CN2CCN(c3ccc4c(n3)CCN(C)C4)CC2)O1 [Example 34, 5-[(2R,6S)-2-methyl-6-[[4-(6-methyl-7,8-dihydro-5H-1,6-naphthyridin-2-yl)piperazin-1-yl]methyl]morpholin-4-yl]quinoline-8-carbonitrile] | 7.74
3 | C[C@@H]1CN(c2ccc(C#N)c3ncccc23)C[C@H](CN2CC3(CCN3c3ccc4c(n3)CCNC4)C2)O1 [Example 36, 5-[(2R,6S)-2-methyl-6-[[1-(5,6,7,8-tetrahydro-1,6-naphthyridin-2-yl)-1,6-diazaspiro[3.3]heptan-6-yl]methyl]morpholin-4-yl]quinoline-8-carbonitrile] | 7.59
4 | C[C@@H]1CN(c2ccc(C#N)c3ncccc23)C[C@H](CN2CCC(Nc3ccc4c(c3)CNC4)C2)O1 (stereo partly drawn) [Example 38, 5-[(2S,6R)-2-[[3-(isoindolin-5-ylamino)pyrrolidin-1-yl]methyl]-6-methyl-morpholin-4-yl]quinoline-8-carbonitrile] | 7.19
5 | C[C@@H]1CN(c2ccc(C#N)c3ncccc23)C[C@H](CN2CCCN(c3ncc4c(n3)CCNC4)CC2)O1 [Example 39, 5-[(2R,6S)-2-methyl-6-[[4-(5,6,7,8-tetrahydropyrido[4,3-d]pyrimidin-2-yl)-1,4-diazepan-1-yl]methyl]morpholin-4-yl]quinoline-8-carbonitrile] | 8.10
6 | C[C@@H]1CN(c2ccc(C#N)c3ncccc23)C[C@H](CN2CCN(c3cnc4c(n3)CNCC4)CC2)O1 [Example 40, 5-[(2R,6S)-2-methyl-6-[[4-(5,6,7,8-tetrahydropyrido[3,4-b]pyrazin-3-yl)piperazin-1-yl]methyl]morpholin-4-yl]quinoline-8-carbonitrile] | 8.15
7 | CC1NCc2ncc(N3CCN(C[C@H]4CN(c5ccc(C#N)c6ncccc56)C[C@@H](C)O4)CC3)cc21 (stereo partly drawn) [Example 41, 5-[(2R,6S)-2-methyl-6-[[4-(5-methyl-6,7-dihydro-5H-pyrrolo[3,4-b]pyridin-3-yl)piperazin-1-yl]methyl]morpholin-4-yl]quinoline-8-carbonitrile] | 7.55
8 | C[C@@H]1CN(c2ccc(C#N)c3ncccc23)C[C@H](CNC2CN(c3cnc4c(c3)CNC4)C2)O1 [Example 43, 5-[(2S,6R)-2-[[[1-(6,7-dihydro-5H-pyrrolo[3,4-b]pyridin-3-yl)azetidin-3-yl]amino]methyl]-6-methyl-morpholin-4-yl]quinoline-8-carbonitrile] | 6.89
9 | C[C@@H]1CN(c2ccc(C#N)c3ncccc23)C[C@H](CN2CC3(C2)CN(c2ccc4c(c2)CCNC4)CCO3)O1 [Example 44, 5-[(2R,6S)-2-methyl-6-[[8-(1,2,3,4-tetrahydroisoquinolin-6-yl)-5-oxa-2,8-diazaspiro[3.5]nonan-2-yl]methyl]morpholin-4-yl]quinoline-8-carbonitrile] | 7.96
10 | C[C@@H]1CN(c2ccc(C#N)c3ncccc23)C[C@H](CN2CC3(C2)CN(c2ccc4c(n2)CNCC4)CCO3)O1 [Example 45, 5-[(2R,6S)-2-methyl-6-[[8-(5,6,7,8-tetrahydro-1,7-naphthyridin-2-yl)-5-oxa-2,8-diazaspiro[3.5]nonan-2-yl]methyl]morpholin-4-yl]quinoline-8-carbonitrile] | 8.05
11 | C[C@@H]1CN(c2ccc(C#N)c3ncccc23)C[C@H](CN2CC3(C2)CN(c2cnc4c(c2)CCNC4)CCO3)O1 [Example 46, 5-[(2R,6S)-2-methyl-6-[[8-(5,6,7,8-tetrahydro-1,7-naphthyridin-3-yl)-5-oxa-2,8-diazaspiro[3.5]nonan-2-yl]methyl]morpholin-4-yl]quinoline-8-carbonitrile] | 7.92
12 | C[C@@H]1CN(c2ccc(C#N)c3ncccc23)C[C@H](CN2CC3(C2)CN(c2cnc4c(c2)CNCC4)CCO3)O1 [Example 47, 5-[(2R,6S)-2-methyl-6-[[8-(5,6,7,8-tetrahydro-1,6-naphthyridin-3-yl)-5-oxa-2,8-diazaspiro[3.5]nonan-2-yl]methyl]morpholin-4-yl]quinoline-8-carbonitrile] | 7.92
13 | C[C@@H]1CN(c2ccc(C#N)c3ncccc23)C[C@H](CN2CC3(C2)CN(c2cc4c(cn2)CCNC4)CCO3)O1 [Example 48, 5-[(2R,6S)-2-methyl-6-[[8-(5,6,7,8-tetrahydro-2,6-naphthyridin-3-yl)-5-oxa-2,8-diazaspiro[3.5]nonan-2-yl]methyl]morpholin-4-yl]quinoline-8-carbonitrile] | 8.30
14 | C[C@@H]1CN(c2ccc(C#N)c3ncccc23)C[C@H](CN2CC3(C2)CN(c2ccc4c(n2)CCNC4)CCO3)O1 [Example 49, 5-[(2R,6S)-2-methyl-6-[[8-(5,6,7,8-tetrahydro-1,6-naphthyridin-2-yl)-5-oxa-2,8-diazaspiro[3.5]nonan-2-yl]methyl]morpholin-4-yl]quinoline-8-carbonitrile] | 8.30
15 | C[C@@H]1CN(c2ccc(C#N)c3ncccc23)C[C@H](CN2CC3(C2)CN(c2cnc4c(n2)CCNC4)CCO3)O1 [Example 50, 5-[(2R,6S)-2-methyl-6-[[8-(5,6,7,8-tetrahydropyrido[3,4-b]pyrazin-2-yl)-5-oxa-2,8-diazaspiro [3.5]nonan-2-yl]methyl]morpholin-4-yl] quinoline-8-carbonitrile] | 8.40
16 | C[C@@H]1CN(c2ccc(C#N)c3ncccc23)C[C@H](CN2CC3(C2)CN(c2ncc4c(n2)CCNC4)CCO3)O1 [Example 51, 5-[(2R,6S)-2-methyl-6-[[8-(5,6,7,8-tetrahydropyrido[4,3-d]pyrimidin-2-yl)-5-oxa-2,8-diazaspiro[3.5]nonan-2-yl]methyl]morpholin-4-yl]quinoline-8-carbonitrile] | 7.92
17 | C[C@@H]1CN(c2ccc(C#N)c3ncccc23)C[C@H](CN2C[C@@H]3[C@@H](C2)OCCN3c2cnc3c(c2)CCNC3)O1 [Example 52, 5-[(2S,6R)-2-[[(4aR,7aR)-4-(5,6,7,8-tetrahydro-1,7-naphthyridin-3-yl)-2,3,4a,5,7,7a-hexahydropyrrolo[3,4-b][1,4]oxazin-6-yl]methyl]-6-methylmorpholin-4-yl]quinoline-8-carbonitrile] | > 8.52
18 | C[C@@H]1CN(c2ccc(C#N)c3ncccc23)C[C@H](CN2CCN(c3cnc4c(c3)CNCC4)C(C)(C)C2)O1 [Example 56, 5-[(2S,6R)-2-[[3,3-dimethyl-4-(5,6,7,8-tetrahydro-1,6-naphthyridin-3-yl)piperazin-1-yl]methyl]-6-methyl-morpholin-4-yl]quinoline-8-carbonitrile] | 7.92
19 | C[C@@H]1CN(c2ccc(C#N)c3ncccc23)C[C@H](CN2CCC(Nc3ncc4c(n3)CCNC4)C2)O1 (stereo partly drawn) [Example 57, 5-[(2R,6S)-2-methyl-6-[[3-(5,6,7,8-tetrahydropyrido [4,3-d]pyrimidin-2-ylamino)pyrrolidin-1-yl]methyl]morpholin-4-yl] quinoline-8-carbonitrile] | 7.70
